Data reported in paper PMC12123458, “Unraveling Small Molecule-Mediated Sirtuin 3 Activation at a Distinct Binding Site for Cardioprotective Therapies” (ACS Central Science, 2025).

What was measured:
SIRT3 L298G mutant = molecular target: T1, SIRT3 L298G mutant (Homo sapiens, UniProt Q9NTG7, L298G); experiment: BLI binding of SKLB-11A to mutant SIRT3 (L298G); conditions: read-out: dissociation constant, L298G mutant SIRT3
T1 construct: made in house
T1 sequence (Q9NTG7 1-399 L298G): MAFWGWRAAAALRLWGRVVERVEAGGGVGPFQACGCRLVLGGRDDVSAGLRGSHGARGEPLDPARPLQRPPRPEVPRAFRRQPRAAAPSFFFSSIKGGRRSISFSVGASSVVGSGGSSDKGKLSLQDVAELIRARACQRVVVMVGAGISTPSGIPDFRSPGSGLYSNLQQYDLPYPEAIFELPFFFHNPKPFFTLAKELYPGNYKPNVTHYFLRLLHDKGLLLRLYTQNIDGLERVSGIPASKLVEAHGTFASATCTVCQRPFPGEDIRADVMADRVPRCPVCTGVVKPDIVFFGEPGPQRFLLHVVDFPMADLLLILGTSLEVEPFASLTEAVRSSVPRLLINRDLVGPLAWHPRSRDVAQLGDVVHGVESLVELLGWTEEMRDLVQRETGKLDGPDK
Procedure: SIRT3 protein at a concentration of 10 mg/mL was incubated with SKLB-11A (200 mM) in a mole ratio of 1:5 on ice for 1–3 h. The mixture was then centrifuged at 4 °C for 10 min, and the supernatant was used for crystallization. The precipitant solution consisted of 0.2 M Li2SO4, 1.0 M (NH4)2SO4, and 0.1 M Tris, at pH 7.5. Crystals emerged after approximately 3 days at 16 °C on a sitting-drop plate. The crystals were subsequently transferred to a cryoprotectant solution containing 20% glycerol and were flash-cooled in a nitrogen gas stream at 100 K for synchrotron radiation X-ray diffraction data collection. Site-directed mutagenesis. L298G Primer forward: 5′-[…]-GAACCGggc[…][…]-3′; reverse: 5′-gccCGGTT[…]-AAAACGA-3′; Site-directed mutagenesis was conducted using 2 x Phanta Flash Master Mix (Vazyme, P510). The mutated plasmid was sequenced by Sangon Biotech (Shanghai, China).
Binding kinetics of SIRT3 with various compounds were quantified using SSA biosensors on an Octet Red96 system (ForteBio). The assays occurred in 96-well plates, recording wavelength shifts in real-time. Ambient temperature was maintained at 25 °C, with plate agitation at 1000 rpm, and a reaction volume of 200 μL per well. SIRT3 protein and test compounds were prepared in phosphate-buffered saline (PBS, pH 7.4). […]

SIRT1 = molecular target: T2, SIRT1 (Homo sapiens, UniProt Q96EB6); experiment: Coupled enzymatic assay, acetylated p53-K381 substrate; format: biochemical; conditions: 100 μM
T2 sequence (Q96EB6 1-747): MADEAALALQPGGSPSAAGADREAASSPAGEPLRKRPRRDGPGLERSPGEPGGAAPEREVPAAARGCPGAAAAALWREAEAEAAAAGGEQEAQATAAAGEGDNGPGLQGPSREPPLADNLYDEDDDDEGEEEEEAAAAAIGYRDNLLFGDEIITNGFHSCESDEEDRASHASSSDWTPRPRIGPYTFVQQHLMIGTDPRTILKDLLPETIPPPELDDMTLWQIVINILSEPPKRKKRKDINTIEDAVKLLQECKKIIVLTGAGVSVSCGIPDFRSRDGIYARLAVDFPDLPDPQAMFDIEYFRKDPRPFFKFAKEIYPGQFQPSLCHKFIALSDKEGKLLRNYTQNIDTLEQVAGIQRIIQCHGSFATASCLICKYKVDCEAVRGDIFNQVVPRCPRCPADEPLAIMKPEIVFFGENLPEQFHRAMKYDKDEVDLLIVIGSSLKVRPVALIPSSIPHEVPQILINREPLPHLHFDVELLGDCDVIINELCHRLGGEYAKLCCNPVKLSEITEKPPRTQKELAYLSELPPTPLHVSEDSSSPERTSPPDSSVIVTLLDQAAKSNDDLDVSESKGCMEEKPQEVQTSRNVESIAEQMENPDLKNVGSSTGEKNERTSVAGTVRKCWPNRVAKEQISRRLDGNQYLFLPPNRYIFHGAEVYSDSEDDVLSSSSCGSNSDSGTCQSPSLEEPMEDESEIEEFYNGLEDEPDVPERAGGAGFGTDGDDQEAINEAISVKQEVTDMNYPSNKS
Text: Additionally, we used surface plasmon resonance (SPR) to measure the binding of SKLB-11A to immobilized SIRT3. […] We next evaluated the selectivity of SKLB-11A for different SIRT family members. […] We next examined the functional specificity of SKLB-11A using coupled enzymatic assays with isoform-specific, physiologically relevant substrates: acetylated p53-K381 for SIRT1, acetylated α-tubulin-K25 for SIRT2, acetylated MnSOD-K122 for SIRT3, and succinylated CPS1-K537 for SIRT5 (Supplementary Table S3). […] Using Schrödinger molecular docking simulations, we assessed the binding interactions of SKLB-11A with SIRT isoforms.

[1] = tested on: Dox-induced cardiotoxicity model; experiment: Mouse model of doxorubicin-induced cardiomyopathy; format: in vivo
Procedure: For the establishment of the experimental model, male C57BL/6J mice aged 8 weeks, with an average weight of 23 g, were utilized. The mice were administered varying dosages of SKLB-11A (10 and 20 mg/kg/day) or a corresponding volume of sterile saline via oral gavage over a period of 7 days. […] The sample size for each group consisted of eight specimens. Echocardiographic assessments were conducted at three distinct time points: baseline (day 0), post-treatment (day 7), and at the conclusion of the study (day 21). The experimental timeline was terminated on day 21.
Noninvasive transthoracic echocardiography was performed using a Vevo 3100 System with a 30-MHz transducer to assess cardiac function in mice. The procedure was conducted by an experienced technician who was blinded to the study groups. Mice were anesthetized with 1.5–2% isoflurane and underwent skin preparation. Two-dimensional guided M-mode echocardiography in the short axis view was used to measure left ventricular fractional shortening (FS) and left ventricular ejection fraction (EF).
H&E staining was used to evaluate pathological changes in key organs. Fixed tissues were dehydrated, embedded in paraffin, and sectioned into 4 μm slices. The sections were stained with hematoxylin for 10–15 min, washed with tap water for 2 min, differentiated for 30 s using hydrochloric acid and ethanol, and then washed with warm water for 5 min. After staining with eosin for 2 min, the sections were dehydrated and mounted with resin. All procedures followed the standard operating procedure (SOP) for pathological examination.

For `COC(=O)c1c(N)n(Cc2ccc(F)cc2)c2nc3ccccc3nc12` [SKLB-11A, Methyl 2-amino-1-(4-fluorobenzyl)-1H-pyrrolo[2,3-b]quinoxaline-3-carboxylate], the Kd (SIRT3 L298G mutant) was 167 µM, the “effect on basal SIRT1 deacetylation activity” value (SIRT1) was “no statistically significant effects” and the “left ventricular ejection fraction (EF) and fractional shortening (FS)” value ([1]; 10 or 20 mg/kg, ig, pretreatment, Dox mice, dose-dependent) was “significantly restored”. For the same compound, the “body weight (Dox-induced weight loss)” value ([1]; Dox mice) was “partially reversed Dox-induced weight loss”, the “mitochondrial respiration (basal and maximal) in heart tissues” value ([1]; Dox mice) was “restored mitochondrial respiration” and the “serum markers of myocardial injury LDH, CK-MB, BNP” value ([1]; Dox mice) was “reduced serum markers of myocardial injury”. The “myocardial structure, histology” value ([1]; Dox mice, H&E) was “preserved myocardial structure” and the “toxicity at effective doses, organ histology (heart, liver, spleen, lungs, kidneys)” value ([1]; mice, H&E) was “no apparent toxicity”.
